Source: US11708348B2, “Protease inhibitors for treatment of coronavirus infections” (The Scripps Research Institute, priority 2021, dated 2023)
Where two headings read alike, the source gives them in different places.

Test system: SARS-CoV-2 strain USA-WA1/2020
Assay: microbe, parasite or virus in culture
Assay type: cell-based
Conditions: Severe acute respiratory syndrome coronavirus 2, HeLa-ACE2, 24 h, HeLa-ACE2 cells, SARS-CoV-2 infection, 24 h, read-out: EC50, uM (Hela)

`CC(C)C(F)(F)C(NC(=O)C(=O)Nc1ccccc1F)C(=O)N[C@@H](C[C@@H]1CCNC1=O)C(=O)COc1c(F)c(F)cc(F)c1F` (stereo partly drawn) [Compound 76, N1-(3,3-difluoro-4-methyl-1-oxo-1-(((S)-3-oxo-1-((S)-2-oxopyrrolidin-3-yl)-4-(2,3,5,6-tetrafluorophenoxy)butan-2-yl)amino)pentan-2-yl)-N2-(2-fluorophenyl)oxalamide] gave an EC50 (class symbols) of 0.05 to 0.2 µM.

`CC(C)CC(F)(F)C(=O)N1CC2(CC2)C[C@H]1C(=O)N[C@@H](C[C@@H]1CCNC1=O)C(=O)COC(F)(F)F` [Compound 623, (S)-5-(2,2-difluoro-4-methylpentanoyl)-N-((S)-3-oxo-1-((S)-2-oxopyrrolidin-3-yl)-4-(trifluoromethoxy)butan-2-yl)-5-azaspiro[2.4]heptane-6-carboxamide] was tested, and the EC50 was under 0.05 µM.

`O=C1NCC[C@H]1C[C@H](NC(=O)[C@@H]1CC2(CC2)CN1C(=O)[C@H]1CCCO1)C(=O)COC(F)(F)F` [Compound 305, (S)-N-((S)-3-oxo-1-((S)-2-oxopyrrolidin-3-yl)-4-(trifluoromethoxy)butan-2-yl)-5-((R)-tetrahydrofuran-2-carbonyl)-5-azaspiro[2.4]heptane-6-carboxamide] showed an EC50 (class symbols) of 0.2 to 0.5 µM.

For `O=C1NCC[C@H]1C[C@H](NC(=O)[C@H](CC1CC1)NC(=O)[C@H]1CCCO1)C(=O)COC(F)(F)F` [Compound 300, (R)-N-((S)-3-cyclopropyl-1-oxo-1-(((S)-3-oxo-1-((S)-2-oxopyrrolidin-3-yl)-4-(trifluoromethoxy)butan-2-yl)amino)propan-2-yl)tetrahydrofuran-2-carboxamide], the EC50 (class symbols) was under 0.05 µM.

`[2H]C([2H])([2H])CCCCC(=O)N1CC2(CC2)C[C@H]1C(=O)N[C@@H](C[C@@H]1CCNC1=O)C(=O)COC(F)(F)F` [Compound 757, (S)-5-(hexanoyl-6,6,6-d3)-N-((S)-3-oxo-l-((S)-2-oxopyrrolidin-3-yl)-4-(trifluoromethoxy)butan-2-yl)-5-azaspiro[2.4]heptane-6-carboxamide] showed an EC50 of under 0.05 µM.

`O=C(N[C@@H](CC1CC1)C(=O)N[C@@H](C[C@@H]1CCNC1=O)C(=O)COC(F)(F)F)C(=O)NC12CC(F)(C1)C2` [Compound 509, N1-((S)-3-cyclopropyl-1-oxo-1-(((S)-3-oxo-1-((S)-2-oxopyrrolidin-3-yl)-4-(trifluoromethoxy)butan-2-yl)amino)propan-2-yl)-N2-(3-fluorobicyclo[1.1.1]-pentan-1-yl)oxalamide] was tested, and the EC50 was under 0.05 µM.

`O=C(Nc1ccccc1F)C(=O)N1CCC[C@@H](C(=O)N[C@@H](C[C@@H]2CCNC2=O)C(=O)COc2c(F)c(F)cc(F)c2F)C1` [Compound 95, (R)-1-(2-((2-fluorophenyl)amino)-2-oxoacetyl)-N-((S)-3-oxo-1-((S)-2-oxopyrrolidin-3-yl)-4-(2,3,5,6-tetrafluorophenoxy)butan-2-yl)piperidine-3-carboxamide] showed an EC50 (cells given as a bound) of over 1 µM.

For `C=CC[C@H](NC(=O)C(=O)Nc1ccccc1)C(=O)N[C@@H](C[C@@H]1CCNC1=O)C(=O)COc1c(F)c(F)cc(F)c1F` [Compound 58, N1-((S)-1-oxo-1-(((S)-3-oxo-1-((S)-2-oxopyrrolidin-3-yl)-4-(2,3,5,6-tetrafluorophenoxy)butan-2-yl)amino)pent-4-en-2-yl)-N2-phenyloxalamide], the EC50 (class symbols) was 0.2 to 0.5 µM.

In the case of `CC(C)C[C@H](NC(=O)O[C@H]1CCOC1)C(=O)N[C@@H](C[C@@H]1CCNC1=O)C(=O)COc1c(F)c(F)cc(F)c1F` [Compound 127, (S)-tetrahydrofuran-3-yl ((S)-4-methyl-1-oxo-1-(((S)-3-oxo-1-((S)-2-oxopyrrolidin-3-yl)-4-(2,3,5,6-tetrafluorophenoxy)butan-2-yl)amino)pentan-2-yl)carbamate], the EC50 (class symbols) is reported as 0.5 to 1 µM.

For `O=C(Nc1ccccc1F)C(=O)N1C[C@@H]2CC[C@@H]2[C@H]1C(=O)N[C@@H](C[C@@H]1CCNC1=O)C(=O)COC(F)(F)F` [Compound 563, (1S,2S, 5R)-3-(2-((2-fluorophenyl)amino)-2-oxoacetyl)-N-((S)-3-oxo-1-((S)-2-oxopyrrolidin-3-yl)-4-(trifluoromethoxy)butan-2-yl)-3-azabicyclo-[3.2.0]heptane-2-carboxamide], the EC50 was 0.05 to 0.2 µM.

Molecule `C[C@@](O)(C(=O)N1CC2(CC2)C[C@H]1C(=O)N[C@@H](C[C@@H]1CCNC1=O)C(=O)COC(F)(F)F)c1ccccc1` [Compound 364, (S)-5-((S)-2-hydroxy-2-phenylpropanoyl)-N-((S)-3-oxo-1-((S)-2-oxopyrrolidin-3-yl)-4-(trifluoromethoxy)butan-2-yl)-5-azaspiro[2.4]-heptane-6-carboxamide] has an EC50 (class symbols) of under 0.05 µM.

`O=C(Nc1ccccc1F)C(=O)N[C@@H](CCC1CCCCC1)C(=O)N[C@@H](C[C@@H]1CCNC1=O)C(=O)COc1c(F)c(F)cc(F)c1F` [Compound 108, N1-((S)-4-cyclohexyl-1-oxo-1-(((S)-3-oxo-1-((S)-2-oxopyrrolidin-3-yl)-4-(2,3,5,6-tetrafluorophenoxy)butan-2-yl)amino)butan-2-yl)-N2-(2-fluorophenyl)oxalamide] gave an EC50 (class symbols) of 0.2 to 0.5 µM.

`CC1(NC(=O)C(=O)N[C@@H](CC2CC2)C(=O)N[C@@H](C[C@@H]2CCNC2=O)C(=O)COC(F)(F)F)CCOCC1` [Compound 222, N1-((S)-3-cyclopropyl-1-oxo-1-(((S)-3-oxo-1-((S)-2-oxopyrrolidin-3-yl)-4-(trifluoromethoxy)butan-2-yl)amino)propan-2-yl)-N2-(4-methyltetrahydro-2H-pyran-4-yl)oxalamide] was tested, and the EC50 (class symbols) was 0.05 to 0.2 µM.

`CC(C)(F)C(O)C(=O)N1CC2(CC2)C[C@H]1C(=O)N[C@@H](C[C@@H]1CCNC1=O)C(=O)COC(F)(F)F` (stereo partly drawn) [Compound 762, (6S)-5-(3-fluoro-2-hydroxy-3-methylbutanoyl)-N-((S)-3-oxo-1-((S)-2-oxopyrrolidin-3-yl)-4-(trifluoromethoxy)butan-2-yl)-5-azaspiro[2.4]heptane-6-carboxamide] gave an EC50 of 0.05 to 0.2 µM.

`CC(C)C[C@H](NC(=O)O[C@@H]1CCOC1)C(=O)N[C@@H](C[C@@H]1CCNC1=O)C(=O)COc1c(F)c(F)cc(F)c1F` [Compound 126, (R)-tetrahydrofuran-3-yl ((S)-4-methyl-1-oxo-1-(((S)-3-oxo-1-((S)-2-oxopyrrolidin-3-yl)-4-(2,3,5,6-tetrafluorophenoxy)butan-2-yl)amino)pentan-2-yl)carbamate] gave an EC50 (cells given as a bound) of over 1 µM.

Molecule `O=C1NCC[C@H]1C[C@H](NC(=O)[C@@H]1CC2(CC2)CN1C(=O)C1(O)CCC1)C(=O)COC(F)(F)F` [Compound 422, (S)-5-(1-hydroxycyclobutane-1-carbonyl)-N-((S)-3-oxo-1-((S)-2-oxo-pyrrolidin-3-yl)-4-(trifluoromethoxy)butan-2-yl)-5-azaspiro[2.4]heptane-6-carboxamide] has an EC50 of 0.05 to 0.2 µM.

Work on `CC1(NC(=O)C(=O)N[C@@H](CC2CC2)C(=O)N[C@@H](C[C@@H]2CCNC2=O)C(=O)COC(F)(F)F)CC(F)(F)C1` [Compound 220, N1-((S)-3-cyclopropyl-1-oxo-1-(((S)-3-oxo-1-((S)-2-oxopyrrolidin-3-yl)-4-(trifluoromethoxy)butan-2-yl)amino)propan-2-yl)-N2-(3,3-difluoro-1-methylcyclobutyl)-oxalamide] yielded an EC50 (class symbols) of under 0.05 µM.

`CC(C)CC(C)(C)C(=O)N1CC2(CC2)C[C@H]1C(=O)N[C@@H](C[C@@H]1CCNC1=O)C(=O)COC(F)(F)F` [Compound 625, (S)-N-((S)-3-oxo-1-((S)-2-oxopyrrolidin-3-yl)-4-(trifluoromethoxy)butan-2-yl)-5-(2,2,4-trimethylpentanoyl)-5-azaspiro[2.4]heptane-6-carboxamide] was tested, and the EC50 was under 0.05 µM.
